Results published in US7576091B2, “Thiazolo-, oxazalo and imidazolo-quinazoline compounds capable of inhibiting protein kinases” (Cyclacel Limited, priority 2003, dated 2009).

Columns and labels:
[1] = target: Cyclin E - CDK2 (Homo sapiens, UniProt P24941); assay: Cyclin E - CDK2 kinase inhibition assay; assay type: biochemical; conditions: [ATP] = 100 μM
Procedure: (§1) Compounds were tested in cyclin-CDK kinase assays and cytotoxicity assays against human tumour cell lines (72-h MTT assay) as previously described.

[2] = target: Cyclin D1 - CDK4 (Homo sapiens, UniProt P11802); assay: Cyclin D1 - CDK4 kinase inhibition assay; assay type: biochemical; conditions: [ATP] = 100 μM
Procedure: as §1

[3] = system: A549; assay: 72-h MTT cytotoxicity assay, A549; assay type: cell-based; conditions: A549 human tumour cell line
Procedure: as §1

[4] = target: Cyclin T - CDK9 (Homo sapiens, UniProt P50750); assay: Cyclin T - CDK9 kinase inhibition assay; assay type: biochemical; conditions: [ATP] = 100 μM
Procedure: as §1

[5] = target: Cyclin H - CDK7 (Homo sapiens, UniProt P50613); assay: Cyclin H - CDK7 kinase inhibition assay; assay type: biochemical; conditions: [ATP] = 100 μM
Procedure: as §1

[6] = target: Cyclin A - CDK2 (Homo sapiens, UniProt P24941); assay: Cyclin A - CDK2 kinase inhibition assay; assay type: biochemical; conditions: [ATP] = 100 μM
Procedure: as §1

[7] = system: Saos-2; assay: 72-h MTT cytotoxicity assay, Saos-2; assay type: cell-based; conditions: Saos-2 human tumour cell line
Procedure: as §1

[8] = system: HT29; assay: 72-h MTT cytotoxicity assay, HT29; assay type: cell-based; conditions: HT-29, HT29 human tumour cell line
Procedure: as §1

[9] = target: Cyclin B - CDK1 (Homo sapiens, UniProt P06493); assay: Cyclin B - CDK1 kinase inhibition assay; assay type: biochemical; conditions: [ATP] = 100 μM
Procedure: as §1

Chain of Cyclin H - CDK7 (P50613 whole entry): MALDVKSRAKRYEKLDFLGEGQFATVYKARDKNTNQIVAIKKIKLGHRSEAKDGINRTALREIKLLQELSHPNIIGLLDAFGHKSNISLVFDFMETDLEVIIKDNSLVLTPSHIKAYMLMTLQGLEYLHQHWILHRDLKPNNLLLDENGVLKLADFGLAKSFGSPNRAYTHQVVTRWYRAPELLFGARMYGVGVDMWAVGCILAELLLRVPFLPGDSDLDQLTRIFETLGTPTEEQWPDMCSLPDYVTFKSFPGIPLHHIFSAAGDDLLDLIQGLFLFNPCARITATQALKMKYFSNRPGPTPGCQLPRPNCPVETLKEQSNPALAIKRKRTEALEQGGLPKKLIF
Chain of Cyclin H - CDK7 (P51946 whole entry partner): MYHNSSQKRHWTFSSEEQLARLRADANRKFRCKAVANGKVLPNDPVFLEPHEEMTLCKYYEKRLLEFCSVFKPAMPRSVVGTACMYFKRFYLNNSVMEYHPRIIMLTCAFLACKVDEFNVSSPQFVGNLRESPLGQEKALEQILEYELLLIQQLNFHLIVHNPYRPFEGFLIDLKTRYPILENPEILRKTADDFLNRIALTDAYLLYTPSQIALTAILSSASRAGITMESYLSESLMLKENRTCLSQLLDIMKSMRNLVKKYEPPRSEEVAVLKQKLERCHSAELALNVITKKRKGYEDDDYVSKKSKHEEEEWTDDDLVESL
Chain of Cyclin B - CDK1 (P06493 whole entry): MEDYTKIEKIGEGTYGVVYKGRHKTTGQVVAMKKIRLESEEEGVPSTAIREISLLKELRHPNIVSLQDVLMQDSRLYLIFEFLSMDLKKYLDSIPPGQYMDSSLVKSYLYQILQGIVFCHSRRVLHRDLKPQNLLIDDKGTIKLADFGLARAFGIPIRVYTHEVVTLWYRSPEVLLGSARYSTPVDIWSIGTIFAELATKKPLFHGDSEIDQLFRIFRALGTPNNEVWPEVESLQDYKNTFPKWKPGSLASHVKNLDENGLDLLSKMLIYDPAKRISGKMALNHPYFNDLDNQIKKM
Chain of Cyclin B - CDK1 (P14635 whole entry partner): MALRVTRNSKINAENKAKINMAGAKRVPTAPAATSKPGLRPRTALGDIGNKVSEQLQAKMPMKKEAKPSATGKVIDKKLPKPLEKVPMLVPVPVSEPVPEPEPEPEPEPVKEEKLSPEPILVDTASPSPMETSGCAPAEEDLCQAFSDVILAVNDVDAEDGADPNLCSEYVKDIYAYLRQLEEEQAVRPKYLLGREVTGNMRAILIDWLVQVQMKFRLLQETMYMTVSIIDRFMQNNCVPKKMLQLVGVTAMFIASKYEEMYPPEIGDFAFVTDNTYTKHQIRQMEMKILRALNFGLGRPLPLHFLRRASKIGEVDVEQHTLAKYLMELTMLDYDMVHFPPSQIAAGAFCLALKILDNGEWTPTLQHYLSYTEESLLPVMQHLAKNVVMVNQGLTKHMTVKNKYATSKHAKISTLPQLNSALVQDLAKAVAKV
Chain of Cyclin D1 - CDK4 (P11802 whole entry): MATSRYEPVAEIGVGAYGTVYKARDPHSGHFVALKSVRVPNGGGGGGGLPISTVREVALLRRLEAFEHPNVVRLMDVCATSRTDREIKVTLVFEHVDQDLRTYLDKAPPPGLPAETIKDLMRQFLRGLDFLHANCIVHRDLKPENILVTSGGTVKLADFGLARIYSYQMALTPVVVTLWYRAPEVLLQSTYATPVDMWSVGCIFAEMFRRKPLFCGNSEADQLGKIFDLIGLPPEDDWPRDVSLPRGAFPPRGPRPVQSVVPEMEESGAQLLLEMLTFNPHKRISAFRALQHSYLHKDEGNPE
Chain of Cyclin D1 - CDK4 (P24385 whole entry partner): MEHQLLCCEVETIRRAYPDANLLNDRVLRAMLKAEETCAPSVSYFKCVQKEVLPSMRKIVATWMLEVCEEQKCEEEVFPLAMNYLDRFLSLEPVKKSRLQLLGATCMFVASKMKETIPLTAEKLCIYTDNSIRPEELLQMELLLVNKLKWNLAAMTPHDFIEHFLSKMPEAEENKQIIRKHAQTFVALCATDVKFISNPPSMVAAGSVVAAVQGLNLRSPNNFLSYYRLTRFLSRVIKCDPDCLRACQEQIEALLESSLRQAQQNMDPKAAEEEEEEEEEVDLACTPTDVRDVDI
Chain of Cyclin T - CDK9 (P50750 whole entry): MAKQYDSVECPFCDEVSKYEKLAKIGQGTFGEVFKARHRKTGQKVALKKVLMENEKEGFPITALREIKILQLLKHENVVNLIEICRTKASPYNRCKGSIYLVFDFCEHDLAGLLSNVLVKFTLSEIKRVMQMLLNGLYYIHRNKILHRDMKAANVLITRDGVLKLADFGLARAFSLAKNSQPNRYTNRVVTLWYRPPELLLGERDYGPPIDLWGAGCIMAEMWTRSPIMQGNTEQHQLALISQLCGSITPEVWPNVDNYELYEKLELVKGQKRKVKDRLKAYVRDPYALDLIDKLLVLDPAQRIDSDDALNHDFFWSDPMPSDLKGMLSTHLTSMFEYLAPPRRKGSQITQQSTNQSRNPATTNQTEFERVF
Chain of Cyclin T - CDK9 (O60563 whole entry partner): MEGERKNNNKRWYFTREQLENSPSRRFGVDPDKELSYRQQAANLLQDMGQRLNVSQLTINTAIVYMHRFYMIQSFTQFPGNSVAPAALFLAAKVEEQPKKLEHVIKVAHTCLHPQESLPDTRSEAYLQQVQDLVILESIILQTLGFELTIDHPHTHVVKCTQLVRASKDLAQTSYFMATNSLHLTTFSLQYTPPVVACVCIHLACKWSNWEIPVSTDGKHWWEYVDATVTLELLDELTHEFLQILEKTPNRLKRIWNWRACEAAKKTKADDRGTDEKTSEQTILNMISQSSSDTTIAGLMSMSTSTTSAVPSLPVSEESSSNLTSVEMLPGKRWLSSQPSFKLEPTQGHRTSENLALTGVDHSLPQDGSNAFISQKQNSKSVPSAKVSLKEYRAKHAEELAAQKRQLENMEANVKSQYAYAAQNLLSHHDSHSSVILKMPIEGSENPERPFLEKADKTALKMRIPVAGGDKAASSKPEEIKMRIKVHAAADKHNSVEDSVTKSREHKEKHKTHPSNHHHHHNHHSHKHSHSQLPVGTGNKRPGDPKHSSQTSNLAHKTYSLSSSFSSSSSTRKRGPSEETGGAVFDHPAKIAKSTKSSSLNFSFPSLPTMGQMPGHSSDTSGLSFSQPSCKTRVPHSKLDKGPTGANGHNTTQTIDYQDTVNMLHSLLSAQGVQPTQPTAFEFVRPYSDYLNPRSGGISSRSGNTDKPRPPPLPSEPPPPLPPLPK

Compound	IC50 [1] [nM]	IC50 [2] [nM]	IC50 [3] [nM]	IC50 [4] [nM]	IC50 [5] [nM]	IC50 [6] [nM]	IC50 [7] [nM]	IC50 [8] [nM]	IC50 [9] [nM]
Cc1nc2c(s1)-c1nc(Nc3cccc([N+](=O)[O-])c3)ncc1CC2 [Cpd 1, (2-Methyl-4,5-dihydro-thiazolo[4,5-h]quinazolin-8-yl)-(3-nitro-phenyl)-amine]	50 ± 40	3800 ± 600	680	8	1700 ± 500	560 ± 40	1200 ± 700	1400 ± 300	1000 ± 200
Cc1nc2c(s1)-c1nc(Nc3ccc(C(F)(F)F)cc3)ncc1CC2 [Cpd 2, (2-Methyl-4,5-dihydro-thiazolo[4,5-h]quinazolin-8-yl)-(4-trifluoromethyl-phenyl)-amine]	400 ± 100	9200 ± 1300	2800 ± 1000	6100	> 100000	4200 ± 900	4400 ± 1800	7100 ± 1300	2800 ± 700
Cc1nc2c(s1)-c1nc(Nc3cccc(O)c3)ncc1CC2 [Cpd 3, 3-(2-Methyl-4,5-dihydro-thiazolo[4,5-h]quinazolin-8-ylamino)-phenol]	20 ± 10	1100 ± 700	2500 ± 1200	13	110 ± 30	2 ± 1	2300 ± 1800	9400 ± 5600	1100 ± 400
Cc1nc2c(s1)-c1nc(Nc3ccc(N4CCOCC4)cc3)ncc1CC2 [Cpd 4, (2-Methyl-4,5-dihydro-thiazolo[4,5-h]quinazolin-8-yl)-(4-morpholin-4-yl-phenyl)-amine]	400 ± 100	> 100000	3500 ± 1400	520 ± 60	2200 ± 500	910 ± 590	5000 ± 800	2100 ± 2000	45000 ± 25000
Cc1nc2c(s1)-c1nc(Nc3ccc(O)cc3)ncc1CC2 [Cpd 5, 4-(2-Methyl-4,5-dihydro-thiazolo[4,5-h]quinazolin-8-ylamino)-phenol]	2 ± 1	1000	4200 ± 1200	1600 ± 800	640 ± 230	9 ± 3	6600 ± 5800	9900 ± 1200	600 ± 120
Cc1nc2c(s1)-c1nc(Nc3ccc(N(C)C)cc3)ncc1CC2 [Cpd 6, N,N-Dimethyl-N′-(2-methyl-4,5-dihydro-thiazolo[4,5-h]quinazolin-8-yl)-benzene-1,4-diamine]	21 ± 1	70 ± 20	8000 ± 4000	2100 ± 700	130 ± 30	58 ± 7	5300 ± 1900	3600 ± 1000	7500 ± 6300
Cc1nc2c(s1)-c1nc(Nc3ccc(Cl)nc3)ncc1CC2 [Cpd 7, (6-Chloro-pyridin-3-yl)-(2-methyl-4,5-dihydro-thiazolo[4,5-h]quinazolin-8-yl)-amine]	49 ± 2	75	3300 ± 300	4100 ± 1700	2800 ± 600	14 ± 6	4900 ± 3400	4000 ± 100	58 ± 46
COc1ccc(Nc2ncc3c(n2)-c2sc(C)nc2CC3)cn1 [Cpd 8, (6-Methoxy-pyridin-3-yl)-(2-methyl-4,5-dihydro-thiazolo[4,5-h]quinazolin-8-yl)-amine]	89 ± 16	220 ± 190	6000 ± 5100	3300 ± 1600	2300 ± 400	14 ± 12	5000 ± 2700	4700 ± 3800	230 ± 190
Cc1nc2c(s1)-c1nc(N(C)c3cccc([N+](=O)[O-])c3)ncc1CC2 [Cpd 9, Methyl-(2-methyl-4,5-dihydro-thiazolo[4,5-h]quinazolin-8-yl)-(3-nitro-phenyl)-amine]	1180 ± 30	> 80000	> 20000	39000 ± 19000	3900 ± 1400	14000 ± 6000	> 20000	> 20000	8000 ± 2000
Cc1nc2ccc3cnc(N(C)c4cccc([N+](=O)[O-])c4)nc3c2s1 [Cpd 10, Methyl-(2-methyl-thiazolo[4,5-h]quinazolin-8-yl)-(3-nitro-phenyl)-amine]	3200 ± 800	> 40000	> 40000	> 100000	44000 ± 11000	47000 ± 20000	> 40000	> 40000	22000 ± 8000
Cc1nc2c(s1)-c1nc(Nc3ccccc3)ncc1CC2 [Cpd 11, (2-Methyl-4,5-dihydro-thiazolo[4,5-h]quinazolin-8-yl)-phenyl-amine]	1 ± 1	1680 ± 40			> 20000	1700			2200 ± 700
Cc1nc2ccc3cnc(Nc4ccccc4)nc3c2s1 [Cpd 12, (2-Methyl-thiazolo[4,5-h]quinazolin-8-yl)-phenyl-amine]	48 ± 13	5000 ± 4000			> 20000	4300 ± 2500			5200 ± 1300
Nc1nc2c(s1)-c1nc(Nc3ccccc3)ncc1CC2 [Cpd 13, N^8-Phenyl-4,5-dihydro-thiazolo[4,5-h]quinazoline-2,8-diamine]	0.7	610 ± 90		360 ± 140	2500 ± 1000	920 ± 470			1900 ± 700
Nc1nc2c(s1)-c1nc(Nc3cccc([N+](=O)[O-])c3)ncc1CC2 [Cpd 14, N^8-(3-Nitro-phenyl)-4,5-dihydro-thiazolo[4,5-h]quinazoline-2,8-diamine]	1 ± 1	250 ± 120				22 ± 10			54 ± 16
